This assay has as its target T1, CFTR (Homo sapiens, UniProt P13569, DEL508-508).
T1 construct: endogenous in cells; host or cells: primary human bronchial epithelial cells from CF subjects (F508del/MF-HBE), differentiated at air-liquid interface
In words: HBE assay: Ussing chamber assay of CFTR-mediated short-circuit currents. The assay is classed as cell-based. As to the method: 1. Ussing Chamber Assay of CFTR-Mediated Short-Circuit Currents
Ussing chamber experiments were performed using human bronchial epithelial (HBE) cells derived from CF subjects heterozygous for F508del and a minimal function CFTR mutation (F508del/MF-HBE) and cultured as previously described (Neuberger T, Burton B, Clark H, Van Goor F Methods Mol Biol 2011:741:39-54). After four days the apical media was removed, and the cells were grown at an air liquid interface for >14 days prior to use.
(§1) To isolate the CFTR-mediated short-circuit (ISC) current, F508del/MF-HBE grown on Costar® Snapwell™ cell culture inserts were mounted in an Ussing chamber and the transepithelial ISC was measured under voltage-clamp recording conditions (Vhold=0 mV) at 37° C. The basolateral solution contained (in mM) 145 NaCl, 0.83 K2HPO4, 3.3 KH2PO4, 1.2 MgCl2, 1.2 CaCl2), 10 Glucose, 10 HEPES (pH adjusted to 7.4 with NaOH) and the apical solution contained (in mM) 145 NaGluconate, 1.2 MgCl2, 1.2 CaCl2), 10 glucose, 10 HEPES (pH adjusted to 7.4 with NaOH) and 30 μM amiloride to block the epithelial sodium channel. Forskolin (20 μM) was added to the apical surface to activate CFTR, followed by apical addition of a CFTR inhibitor cocktail consisting of BPO, GlyH-101, and CFTR inhibitor 172 (each at 20 μM final assay concentration) to specifically isolate CFTR currents. The CFTR-mediated ISC (μA/cm^2) for each condition was determined from the peak forskolin response to the steady-state current following inhibition.
2. Identification of Corrector Compounds
The activity of the CFTR corrector compounds on the CFTR-mediated ISC was determined in Ussing chamber studies as described above. The F508del/MF-HBE cell cultures were either incubated with the corrector compounds at a range of concentrations in combination with 1 μM Ivacaftor or were incubated with the corrector compounds at a single fixed concentration of 10 μM in combination with 1 μM Ivacaftor for 18-24 hours at 37° C. and in the presence of 20% human serum. The concentration of corrector compounds with 1 μM Ivacaftor during the 18-24 hours incubations was kept constant throughout the Ussing chamber measurement of the CFTR-mediated ISC to ensure compounds were present throughout the entire experiment.
Ussing Chamber Assay of CFTR-mediated short-circuit currents
Ussing chamber experiments were performed using human bronchial epithelial (HIBE) cells derived from CF subjects heterozygous for F508del and a minimal function CFTR mutation (F508del/MIF-HIBE) and cultured as previously described (Neuberger T, Burton B, Clark H, Van Goor F Methods Mol Biol 2011:741:39-54). After four days the apical media was removed, and the cells were grown at an air liquid interface for >14 days prior to use.
as §1, with “KH2PO4,” for “K2HPO4,”
Identification of Corrector Compounds

The mark [1] stands for this setting: Table 10, read-out: HBE Max activity (%).
The mark [2] stands for this setting: Table 12, at 10 μM, read-out: HBE Activity at 10 μM (%).
[3] abbreviates: Table 11, read-out: HBE Max Activity (%).
Setting [4] is: Table 12, read-out: HBE Max Activity (%).
The mark [5] stands for this setting: Table 10, at 10 μM, read-out: HBE activity at 10 (μM) (%).
Where [6] appears, read: Table 11, at 10 μM, read-out: HBE Activity at 10 μM (%).
Setting [7] is: HBE assay, read-out: HBE Max activity (%).

Like-named read-outs stand apart in the source and are kept apart here. A value given as a limit tells only on which side of the number the result lay.

From patent US20240150377A1, “MODULATORS OF CYSTIC FIBROSIS TRANSMEMBRANE CONDUCTANCE REGULATOR” (VERTEX PHARMACEUTICALS INCORPORATED, priority 2020, published 2024) come the findings set out here.

T1 sequence (P13569 with tags, fused parts or gaps DEL508-508): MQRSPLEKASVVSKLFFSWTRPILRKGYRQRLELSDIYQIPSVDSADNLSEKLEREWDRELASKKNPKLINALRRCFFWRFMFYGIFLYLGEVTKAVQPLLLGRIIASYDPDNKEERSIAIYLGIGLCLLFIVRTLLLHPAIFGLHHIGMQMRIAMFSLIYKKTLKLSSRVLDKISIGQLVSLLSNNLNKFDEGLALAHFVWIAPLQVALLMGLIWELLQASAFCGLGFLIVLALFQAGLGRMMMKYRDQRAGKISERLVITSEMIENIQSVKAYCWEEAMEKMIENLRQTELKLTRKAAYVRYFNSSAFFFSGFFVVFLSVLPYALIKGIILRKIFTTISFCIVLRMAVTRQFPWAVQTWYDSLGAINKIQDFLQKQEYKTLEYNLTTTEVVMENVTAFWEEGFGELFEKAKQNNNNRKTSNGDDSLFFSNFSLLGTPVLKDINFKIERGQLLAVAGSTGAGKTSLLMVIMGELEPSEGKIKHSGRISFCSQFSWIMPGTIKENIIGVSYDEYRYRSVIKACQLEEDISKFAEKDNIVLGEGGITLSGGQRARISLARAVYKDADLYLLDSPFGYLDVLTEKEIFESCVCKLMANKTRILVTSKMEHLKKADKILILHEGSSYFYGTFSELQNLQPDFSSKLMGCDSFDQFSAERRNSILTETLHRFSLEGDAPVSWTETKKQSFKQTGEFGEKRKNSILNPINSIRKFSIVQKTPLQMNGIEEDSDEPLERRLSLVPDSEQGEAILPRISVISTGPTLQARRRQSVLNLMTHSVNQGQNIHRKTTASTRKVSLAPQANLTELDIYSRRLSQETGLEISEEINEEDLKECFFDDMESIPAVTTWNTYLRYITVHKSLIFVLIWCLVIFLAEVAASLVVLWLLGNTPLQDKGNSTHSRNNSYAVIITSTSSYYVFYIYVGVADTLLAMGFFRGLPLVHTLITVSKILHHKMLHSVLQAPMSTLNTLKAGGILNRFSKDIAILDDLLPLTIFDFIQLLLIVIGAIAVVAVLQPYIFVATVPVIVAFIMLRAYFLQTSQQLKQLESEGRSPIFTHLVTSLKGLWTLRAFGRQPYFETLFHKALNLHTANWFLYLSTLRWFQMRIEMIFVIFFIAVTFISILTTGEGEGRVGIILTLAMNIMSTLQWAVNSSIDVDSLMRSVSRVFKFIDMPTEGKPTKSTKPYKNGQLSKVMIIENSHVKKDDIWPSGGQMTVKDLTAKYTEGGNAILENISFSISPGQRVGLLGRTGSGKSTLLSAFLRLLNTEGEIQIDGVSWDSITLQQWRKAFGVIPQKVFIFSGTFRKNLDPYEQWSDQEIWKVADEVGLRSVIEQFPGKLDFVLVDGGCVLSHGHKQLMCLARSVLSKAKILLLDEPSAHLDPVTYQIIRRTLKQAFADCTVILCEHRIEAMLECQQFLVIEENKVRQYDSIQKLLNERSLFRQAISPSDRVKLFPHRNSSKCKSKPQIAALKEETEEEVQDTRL

With `Cc1cccc(C)c1-c1cc2nc(n1)NS(=O)(=O)c1cccc(c1)C(=O)N(Cc1cccc(N3CC(=O)NC3=O)c1)[C@H](CC(C)(C)C)CO2` [Compound 148, 1-[3-[[(11R)-6-(2,6-Dimethylphenyl)-11-(2,2-dimethylpropyl)-2,2,13-trioxo-9-oxa-2λ^6-thia-3,5,12,19-tetrazatricyclo[12.3.1.14,8]nonadeca-1(18),4(19),5,7,14,16-hexaen-12-yl]methyl]phenyl]imidazolidine-2,4-dione], for the setting “Table 10, read-out: HBE EC50”, the EC50 was in the range of 1 to 3 µM. Also, the Emax under setting [1] was greater than 60%. As to `Cc1cccc(C)c1-c1cc2nc(n1)NS(=O)(=O)c1cccc(c1)C(=O)N(CC1CC(C)(C)C1)[C@H](CC(C)(C)C)CO2` [Compound 1007], under setting [2], the activation at 10 µM is greater than 600%. Consider `Cc1cccc(C)c1-c1cc2nc(n1)NS(=O)(=O)c1cccc(c1)C(=O)N(Cc1cccc(C(C)C)n1)[C@H](CC(C)(C)C)CO2` [Compound 729], for which the EC50 (Table 11, read-out: HBE EC50) was less than 1 µM. The Emax under setting [3] was greater than 60%. For the compound `Cc1cccc(C)c1-c1cc2nc(n1)NS(=O)(=O)c1cccc(c1)C(=O)N(Cc1cccc(N3CCCC3C(C)C)n1)[C@H](CC(C)(C)C)CO2` (some centres unmarked) [Compound 547], for the setting “Table 12, read-out: HBE EC50”, the EC50 was less than 1 µM. In addition, the Emax under setting [4] was greater than 60%. For `Cc1cccc(C)c1-c1cc2nc(n1)NS(=O)(=O)c1cccc(c1)C(=O)N(Cc1cnc(N3CCC(C)(C)C3)cn1)[C@H](CC(C)(C)C)CO2` [Compound 607], the EC50 (Table 11, read-out: HBE EC50) is less than 1 µM. For the same compound, under setting [3], the Emax was greater than 60%. As for `Cc1ccnc(CN2C(=O)c3cccc(c3)S(=O)(=O)Nc3nc(cc(-c4c(C)cccc4C)n3)OC[C@H]2CC(C)(C)C)n1` [Compound 479], the activation at 10 µM under setting [5] was greater than 60%. The Emax under setting [1] was greater than 60%.

For `Cc1cccc(C)c1-c1cc2nc(n1)NS(=O)(=O)c1cccc(c1)C(=O)C(Cc1ccc(C3CCCOC3)cn1)[C@H](CC(C)(C)C)CO2` (some centres unmarked) [Compound 1065], the EC50 (Table 12, read-out: HBE EC50) is less than 1 µM. In addition, under setting [4], the Emax was greater than 60%. For the compound `Cc1cccc(C)c1-c1cc2nc(n1)NS(=O)(=O)c1cccc(c1)C(=O)N(Cc1ncc(N3CCCCC3)cn1)[C@H](CC(C)(C)C)CO2` [Compound 748], under setting [6], the activation at 10 µM is greater than 60%. Also, where the note is “Table 11, read-out: HBE EC50”, the EC50 was less than 1 µM. The Emax under setting [3] was greater than 60%.

`Cc1cccc(C)c1-c1cc2nc(n1)NS(=O)(=O)c1cccc(c1)C(=O)N(Cc1cncc(N3CCC[C@@H]3C3CCOCC3)n1)[C@H](CC(C)(C)C)CO2` [Compound 1534]: the activation at 10 µM (HBE assay, 10 μM, read-out: HBE Activity at 10 μM (%)) was greater than 60%. In the case of `COC[C@H]1CC[C@@H](C)N1c1cncc(CN2C(=O)c3cccc(c3)S(=O)(=O)Nc3nc(cc(-c4c(C)cccc4C)n3)OC[C@H]2CC(C)(C)C)n1` [Compound 1450], under “HBE assay, read-out: HBE EC50”, the concentration giving a half-maximal response (EC50) was less than 1 µM. The Emax under setting [7] was greater than 60%.

On to `Cc1cccc(C)c1-c1cc2nc(n1)NS(=O)(=O)c1cccc(c1)C(=O)N(Cc1cnc(N3CCOCC3)s1)[C@H](CC(C)(C)C)CO2` [Compound 693], for which the activation at 10 µM under setting [2] lay within 30 to 60%. As to `COCCN(C)c1cccc(CCN2C(=O)c3cccc(c3)S(=O)(=O)Nc3nc(cc(-c4c(C)cccc4C)n3)OC[C@H]2CC(C)(C)C)n1` [Compound 464], the EC50 (Table 11, read-out: HBE EC50) is less than 1 µM. Further, the Emax under setting [3] was greater than 60%.

For the compound `Cc1cccc(C)c1-c1cc2nc(n1)NS(=O)(=O)c1cccc(c1)C(=O)N([C@@H](C)c1ccc(-c3c(C)n[nH]c3C)cc1)[C@H](CC(C)(C)C)CO2` [Compound 293], the EC50 (Table 10, read-out: HBE EC50) was less than 1 µM. For the same compound, the Emax under setting [1] was greater than 60%. Turning to `Cc1cccc(C)c1-c1cc2nc(n1)NS(=O)(=O)c1cccc(c1)C(=O)N(Cc1cccc(N3CCC[C@@H]3CO)n1)[C@H](CC(C)(C)C)CO2` [Compound 280], the 50% effective concentration (EC50) (Table 12, read-out: HBE EC50) was less than 1 µM. For the same compound, under setting [4], the Emax was greater than 60%. The matching figures for `Cc1cccc(C)c1-c1cc2nc(n1)NS(=O)(=O)c1cccc(c1)C(=O)N(Cc1cncc(N(C)CC(C)(C)C)n1)[C@H](CC(C)C)CO2` [Compound 551]: less than 1 µM and greater than 60%. Turning to `Cc1cccc(C)c1-c1cc2nc(n1)NS(=O)(=O)c1cccc(c1)C(=O)N(Cc1ccc(-c3c(C)noc3C)cc1)[C@H](CC(C)(C)C)CO2` [Compound 292], under setting [1], the Emax is greater than 60%. As to `C=C(C)c1cccc(CN2C(=O)c3cccc(c3)S(=O)(=O)Nc3nc(cc(-c4c(C)cccc4C)n3)OC[C@H]2CC(C)(C)C)n1` [Compound 735], under setting [6], the activation at 10 µM is greater than 60%. Further, the EC50 (Table 11, read-out: HBE EC50) is less than 1 µM. Under setting [3], the Emax is greater than 60%. Turning to `Cc1cccc(C)c1-c1cc2nc(n1)NS(=O)(=O)c1cccc(c1)C(=O)N(Cc1cccc(N3CC(C(C)(C)C)CC3(C)C)n1)[C@H](CC(C)(C)C)CO2` (some centres unmarked) [Compound 877], the activation at 10 µM under setting [2] was greater than 600%. Consider `Cc1cccc(C)c1-c1cc2nc(n1)NS(=O)(=O)c1cccc(c1)C(=O)N(Cc1cccc(N3CCC[C@H]3C)n1)[C@H](CC(C)(C)C)CO2` [Compound 132, (11R)-6-(2,6-Dimethylphenyl)-11-(2,2-dimethylpropyl)-12-({6-[(2R)-2-methylpyrrolidin-1-yl]pyridin-2-yl}methyl)-9-oxa-2λ^6-thia-3,5,12,19-tetraazatricyclo[12.3.1.14,8]nonadeca-1(17),4,6,8(19),14(18),15-hexaene-2,2,13-trione], for which the EC50 (HBE EC50 (μM), Table 11) is less than 1 µM. Besides, the Emax (read-out: HBE Max activity (%)) is greater than 60%.

`Cc1cccc(C)c1-c1cc2nc(n1)NS(=O)(=O)c1cccc(c1)C(=O)N(Cc1ncc(OC3CCOCC3)cc1F)[C@H](CC(C)(C)C)CO2` [Compound 1368]: the EC50 (HBE assay, read-out: HBE EC50) is less than 1 µM. For the same compound, the Emax under setting [7] is greater than 60%. For `Cc1cccc(C)c1-c1cc2nc(n1)NS(=O)(=O)c1cccc(c1)C(=O)N(Cc1ncc(N3C[C@@H](F)[C@@H](F)C3)cn1)[C@H](CC(C)(C)C)CO2` [Compound 1481], in that order: less than 1 µM and greater than 60%.

On to `Cc1cccc(C)c1-c1cc2nc(n1)NS(=O)(=O)c1cccc(c1)C(=O)N(CC1CCC(C)(C)O1)[C@H](CC(C)(C)C)CO2` (single isomer, unassigned) [Compound 33], for which the activation at 10 µM under setting [6] was greater than 60%.

With `Cc1cccc(C)c1-c1cc2nc(n1)NS(=O)(=O)c1cccc(c1)C(=O)N(Cc1nc(N(C)C(C)C)cc(C(F)(F)F)n1)[C@H](CC(C)(C)C)CO2` [Compound 326], under setting [2], the activation at 10 µM was greater than 600%. For the compound `COC1CCC(CN2C(=O)c3cccc(c3)S(=O)(=O)Nc3nc(cc(-c4c(C)cccc4C)n3)OC[C@H]2CC(C)(C)C)CC1` (some centres unmarked) [Compound 903], the EC50 (Table 11, read-out: HBE EC50) is less than 1 µM. The Emax under setting [3] was greater than 60%. Turning to `Cc1cccc(C)c1-c1cc2nc(n1)NS(=O)(=O)c1cccc(c1)C(=O)N(Cc1ncc(OC(C)C)cn1)[C@H](C(C)C)CO2` [Compound 696], the activation at 10 µM under setting [2] was greater than 600%. In addition, the EC50 (Table 12, read-out: HBE EC50) was less than 1 µM. Besides, the Emax under setting [4] was less than 30%.

As to `Cc1cccc(C)c1-c1cc2nc(n1)NS(=O)(=O)c1cccc(c1)C(=O)N(Cc1cc(C)n(C)n1)[C@H](CC(C)(C)C)CO2` [Compound 828], the activation at 10 µM under setting [5] was greater than 60%.

The term EC50 denotes the concentration at which the effect is half-maximal.
